pIC50: −log10 of the molar value. cmk = not defined here
Experiments:
rCaspase 3 = molecular target: T1, rCaspase 3 (Homo sapiens, UniProt P42574); experiment: fluorometric caspase-3 enzyme assay (Ac-DEVD-AMC substrate); assay type: biochemical; conditions: 2 ng rCaspase 3, 10 μM Ac-DEVD-AMC, 37° C., 30 minutes
T1 construct: purchased PharMingen, a Becton division company, San Diego, Calif
T1 sequence (P42574 29-175 limits assumed): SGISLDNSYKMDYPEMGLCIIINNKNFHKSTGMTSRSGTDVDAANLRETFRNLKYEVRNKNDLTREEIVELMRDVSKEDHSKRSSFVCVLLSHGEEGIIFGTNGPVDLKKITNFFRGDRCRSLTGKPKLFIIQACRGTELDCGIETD
Method: Enzyme activity was measured using synthetic peptide substrates attached to a fluorogenic leaving group. Cleavage of the synthetic substrate by the enzyme results in a fluorescent signal which is read in a spectrofluorometer or in a fluorometric microtiter plate reader.
12 concentrations of the testing compound ranged from 30 μM to […] were tested in the enzyme assay. The enzyme reaction was conducted in the presence of 2 ng rCaspase 3 (purchased from PharMingen, a Becton division company, San Diego, Calif.), various concentrations of testing compound, 10 μM caspase 3 substrate Ac-DEVD-AMC (SEQ ID NO:3) (purchased from Quality Controlled Biochemicals, Inc. Hopkinton, Mass.) and caspase buffer (20 mM PIPES, 100 mM NaCl, 10 mM DTT, 1 mM EDTA, 0.1% CHAPS and 10% sucrose, pH 7.2) in a total volume of 100 μl. The enzyme reaction was carried out in a 96-well plate and incubated at 37° C. for 30 minutes. The plate was then read with a fluorescence plate reader (EG&G WALLAG 1420-002) using excitation filter at 355 nm/emission filter at 460 nm. The data was analyzed using GraphPrism software.

[1] = system: dopaminergic neurons grafted to hemiparkinsonian rats; conditions: cited from earlier work
[2] = treatment of the embryonic nigral cell suspension

Row | Molecule | pIC50 (rCaspase 3) | functional recovery ([1]; hemiparkinsonian rats) | DNA fragmentation and apoptosis in transplants [1, 2] | survival of dopaminergic neurons grafted to hemiparkinsonian rats [1, 2]
1 | CC(C)C(NC(=O)OCC1CCCCC1)C(=O)NC(CC(=O)O)C(=O)CF (stereo not drawn) [Cyclohexylmethoxycarbonyl-Val-Asp-fmk] | 7.14 | – | – | –
2 | CCOC(=O)NC(C(=O)NC(CC(=O)O)C(=O)CF)C(C)C (stereo not drawn) [Ethoxycarbonyl-Val-Asp-fmk] | 7.24 | – | – | –
3 | Ac-YVAD-cmk (reading uncertain; also: printed as Ac-YVAD-cmk) | – | substantially improved functional recovery | mitigated DNA fragmentation and reduced apoptosis in transplants | increased survival of dopaminergic neurons

Source: patent publication US6716818B2, “Caspase inhibitors and the use thereof” (Cytovia, Inc., priority 1999, dated 2004)
